Test results published in US5990122A, “Quinolone- and naphthyridonecarboxylic acid derivatives” (Bayer Aktiengesellschaft, priority 1994, dated 1999).
In brackets after ≈: the same amount, converted by molar mass. Where two headings read alike, the source gives them in different places.

Columns and labels:
Assay type in all cases: cell-based
[1] = inhibition of DNA synthesis in cells from ovaries of the Chinese hamster (CHO-KI), genotoxic potential, fluorophotometric; conditions: hamster, cho-k1 cells, measure of the genotoxic potential, read-out: ID50 (concentration at which DNA synthesis in CHO-KI cells is inhibited by 50%)
Excerpt: (§1) The following Tables 1 and 2 show the minimum inhibitory concentrations as a measure of the antibacterial activity and the ID50 values as a measure of the genotoxic potential of a substance both for compounds according to the invention and for reference compounds from the prior art (EP 520 240). The compounds according to the invention are distinguished in particular by the fact that they have lower interactions with mammalian DNA compared with the compounds according to the prior art. The ID50 is understood as meaning the concentration of a substance at which DNA synthesis in cells from ovaries of the Chinese hamster (CHO-KI) is inhibited by 50%. This value is determined after incubation of the corresponding substances in decreasing dilution stages over defined periods of time. For this, the DNA synthesis in CHO-KI cells is determined in comparison with controls by means of fluorophotometric methods.

Staph. aureus ICB 25701 = assay: minimum inhibitory concentration (MIC), series dilution method on Iso-Sensitest agar; conditions: about 20 hours
Method: (§2) The minimum inhibitory concentrations (MIC) were determined by a series dilution method on Iso-Sensitest agar (Oxoid). For each test substance, a series of agar plates each comprising concentrations of the active compound decreasing by double dilution in each case was prepared. The agar plates were inoculated with a multipoint inoculator (Denley). Overnight cultures of the pathogens which had been diluted beforehand such that each inoculation point comprised about 10^4 colony-forming particles were used for the inoculation. The inoculation agar plates were incubated at 37° C. and the germ growth was read off after about 20 hours. The MIC value (μg/ml) indicated the lowest active compound concentration at which no growth was detectable with the naked eye.

E. coli Neumann = assay: as above; conditions: 37° C., about 20 hours
Method: as §2

Bac. fragilis ES 25 = assay: as above; conditions: about 20 hours
Method: as §2

Staph. aureus 133 = assay: as above; conditions: 37° C., about 20 hours
Method: as §2

Ps. aeruginosa Walter = assay: as above; conditions: 37° C., about 20 hours
Method: as §2

CHO-KI cells = assay: inhibition of DNA synthesis in cells from ovaries of the Chinese hamster (CHO-KI), genotoxic potential, fluorophotometric; conditions: measure of the genotoxic potential
Excerpt: as §1

[2] = Staphylococcus aureus, ICB25701, 37° C., read-out: MIC
[3] = Escherichia coli, read-out: MIC
[4] = Bacteroides fragilis, ES25, 37° C., read-out: MIC
[5] = Staphylococcus aureus, read-out: MIC
[6] = Pseudomonas aeruginosa, read-out: MIC

MIC (Staph. aureus ICB 25701; [2])	MIC (E. coli Neumann; [3])	MIC (Bac. fragilis ES 25; [4])	MIC (Staph. aureus 133; [5])	MIC (Ps. aeruginosa Walter; [6])	MIC (Staph. aureus ICB 25701; 37° C.)	MIC (E. coli Neumann)	MIC (Bac. fragilis ES 25; 37° C.)	MIC (Staph. aureus 133)	MIC (Ps. aeruginosa Walter)	Structure (SMILES)	IC50 [1]	ID50 (concentration at which DNA synthesis in CHO-KI cells is inhibited by 50%) (CHO-KI cells)
0.25 µg/mL (≈ 0.582 µM)	0.03 µg/mL (≈ 0.0699 µM)	1 µg/mL (≈ 2.33 µM)	0.015 µg/mL (≈ 0.0349 µM)	2 µg/mL (≈ 4.66 µM)						NC12CCC(CC1)C1CN(c3c(F)cc4c(=O)c(C(=O)O)cn(C5CC5)c4c3F)CC12 (centres unmarked) [Example 18, 7-(1-amino-4-azatricyclo[5.2.2.0^2,6]undec-4-yl)-1-cyclopropyl-6,8-difluoro-1,4-dihydro-4-oxo-3-quinolinecarboxylic acid]	1 µg/mL (≈ 2.33 µM)	
0.125 µg/mL (≈ 0.262 µM)	0.06 µg/mL (≈ 0.126 µM)	0.25 µg/mL (≈ 0.524 µM)	0.015 µg/mL (≈ 0.0314 µM)	4 µg/mL (≈ 8.38 µM)						NC12C=CC(CC1)C1CN(c3c(F)cc4c(=O)c(C(=O)O)cn(C5CC5)c4c3C(F)(F)F)CC12 (centres unmarked) [Example 6, 7-(1-Amino-4-aza-tricyclo[5.2.2.0^2,6]undec-8-en-4-yl)-1-cyclopropyl-6-fluoro-1,4-dihydro-4-oxo-8-trifluoromethyl-3-quinolinecarboxylic acid]	10 µg/mL (≈ 20.9 µM)	
					2 µg/mL (≈ 4.51 µM)	0.125 µg/mL (≈ 0.282 µM)	4 µg/mL (≈ 9.02 µM)	0.031 µg/mL (≈ 0.0699 µM)	8 µg/mL (≈ 18 µM)	CN1COc2c(N3CC4C5CCC(N)(CC5)C4C3)c(F)c(N)c3c(=O)c(C(=O)O)cn1c23 (centres unmarked) [Example 22, 8-amino-10-(1-amino-4-azatricyclo[5.2.2.0^2,6]undecan-4-yl)-9-fluoro-3-methyl-7-oxo-2,3-dihydro-7H-pyrido[1,2,3-d,e][1,3,4]benzoxadiazine-6-carboxylic acid]		8 µg/mL (≈ 18 µM)
0.125 µg/mL (≈ 0.283 µM)	0.03 µg/mL (≈ 0.0679 µM)	1 µg/mL (≈ 2.26 µM)	0.015 µg/mL (≈ 0.034 µM)	2 µg/mL (≈ 4.53 µM)						COc1c(N2CC3C4CCC(N)(CC4)C3C2)c(F)cc2c(=O)c(C(=O)O)cn(C3CC3)c12 (centres unmarked) [Example 20, 7-(1-amino-4-azatricyclo[5.2.2.0^2,6]undec-4-yl)-1-cyclopropyl-6-fluoro-1,4-dihydro-8-methoxy-4-oxo-3-quinolinecarboxylic acid]	16 µg/mL (≈ 36.2 µM)	
	0.03 µg/mL (≈ 0.0673 µM)	0.5 µg/mL (≈ 1.12 µM)	0.015 µg/mL (≈ 0.0336 µM)	1 µg/mL (≈ 2.24 µM)						CNC1C=CC(C)C2CN(c3c(F)cc4c(=O)c(C(=O)O)cn(C5CC5)c4c3Cl)CC12 (centres unmarked) [Ref. 4, 7(7-methyl-4-methylamino-1,3,3a,4,7,7a-hexahydro-isoindol-2-yl)-8-chloro- -cyclopropyl-6-fluoro-1,4-dihydro-4-oxo-3-quinolinecarboxylic acid, reference compound]	0.1 µg/mL (≈ 0.224 µM)	
0.031 µg/mL (≈ 0.0705 µM)	0.015 µg/mL (≈ 0.0341 µM)	0.125 µg/mL (≈ 0.284 µM)	0.015 µg/mL (≈ 0.0341 µM)	1 µg/mL (≈ 2.28 µM)						COc1c(N2CC3C4C=CC(N)(CC4)C3C2)c(F)cc2c(=O)c(C(=O)O)cn(C3CC3)c12 (centres unmarked) [Example 5, 7-(1-amino-4-aza-tricyclo[5.2.2.0^2,6]undec-8-en-4-yl)-1-cyclopropyl-6-fluoro-1,4-dihydro-8-methoxy-4-oxo-3-quinolinecarboxylic acid]	8 µg/mL (≈ 18.2 µM)	
0.062 µg/mL (≈ 0.145 µM)	0.015 µg/mL (≈ 0.0351 µM)	0.5 µg/mL (≈ 1.17 µM)	0.015 µg/mL (≈ 0.0351 µM)	0.5 µg/mL (≈ 1.17 µM)						NC12C=CC(CC1)C1CN(c3c(F)cc4c(=O)c(C(=O)O)cn(C5CC5)c4c3F)CC12 (centres unmarked) [Example 2]	1 µg/mL (≈ 2.34 µM)	
0.06 µg/mL (≈ 0.135 µM)	0.03 µg/mL (≈ 0.0673 µM)	0.125 µg/mL (≈ 0.28 µM)	0.015 µg/mL (≈ 0.0336 µM)	1 µg/mL (≈ 2.24 µM)						NC12CCC(CC1)C1CN(c3c(F)cc4c(=O)c(C(=O)O)cn(C5CC5)c4c3Cl)CC12 (centres unmarked) [Example 19, 7-(1-amino-4-azatricyclo-[5.2.2.0^2,6]undec-4-yl)-8-chloro-1-cyclopropyl-6-fluoro-1,4-dihydro-4-oxo-3-quinolinecarboxylic acid]	4 µg/mL (≈ 8.97 µM)	
0.125 µg/mL (≈ 0.261 µM)	0.015 µg/mL (≈ 0.0313 µM)	0.125 µg/mL (≈ 0.261 µM)	0.015 µg/mL (≈ 0.0313 µM)	4 µg/mL (≈ 8.34 µM)						NC12CCC(CC1)C1CN(c3c(F)cc4c(=O)c(C(=O)O)cn(C5CC5)c4c3C(F)(F)F)CC12 (centres unmarked) [Example 21, 7-(1-amino-4-azatricyclo[5.2.2.0^2,6]undec-4-yl)-1-cyclopropyl-6-fluoro-1,4-dihydro-4-oxo-8-trifluoromethyl-3-quinolinecarboxylic acid]	10 µg/mL (≈ 20.9 µM)	
0.06 µg/mL (≈ 0.144 µM)	0.015 µg/mL (≈ 0.0361 µM)	0.5 µg/mL (≈ 1.2 µM)	0.015 µg/mL (≈ 0.0361 µM)	0.5 µg/mL (≈ 1.2 µM)						CC1C=CC(N)C2CN(c3c(F)cc4c(=O)c(C(=O)O)cn(C5CC5)c4c3F)CC12 (centres unmarked) [Ref. 1, 7(4-amino-7-methyl-1,3,3a,4,7,7a-hexahydro-isoindol-2-y1)-1-cyclopropyl-6 8-difluoro-1,4-dihydro-4-oxo-3-quinolinecarboxylic acid, reference compound]		
0.031 µg/mL (≈ 0.0698 µM)	0.015 µg/mL (≈ 0.0338 µM)	0.125 µg/mL (≈ 0.282 µM)	0.015 µg/mL (≈ 0.0338 µM)	0.5 µg/mL (≈ 1.13 µM)						NC12C=CC(CC1)C1CN(c3c(F)cc4c(=O)c(C(=O)O)cn(C5CC5)c4c3Cl)CC12 (centres unmarked) [Example 3, 7-(1-Amino-4-aza-tricyclo[5.2.2.0^2,6]undec-8-en-4-yl)-8-chloro-1-cyclopropyl-6-fluoro-1,4-dihydro-4-oxo-3-quinoline-carboxylic acid]	4 µg/mL (≈ 9.01 µM)	
0.015 µg/mL (≈ 0.0351 µM)	0.015 µg/mL (≈ 0.0351 µM)	0.25 µg/mL (≈ 0.585 µM)	0.015 µg/mL (≈ 0.0351 µM)	1 µg/mL (≈ 2.34 µM)						COc1c(N2CC3C(C)C=CC(N)C3C2)c(F)cc2c(=O)c(C(=O)O)cn(C3CC3)c12 (centres unmarked) [Ref. 2, 7(4-amino-7-methyl-1,3,3a,4,7,7a-hexahydro-isoindol-2-y1)-1-cyclopropyl-6 fluoro-1,4-dihydro-8-methoxy-4-oxo-3-quinolinecarboxylic acid, reference compound]		
0.015 µg/mL (≈ 0.0347 µM)	0.015 µg/mL (≈ 0.0347 µM)	0.125 µg/mL (≈ 0.289 µM)	0.015 µg/mL (≈ 0.0347 µM)	0.5 µg/mL (≈ 1.16 µM)						CC1C=CC(N)C2CN(c3c(F)cc4c(=O)c(C(=O)O)cn(C5CC5)c4c3Cl)CC12 (centres unmarked) [Ref. 3, 7(4-amino-7-methyl-1,3,3a,4,7,7a-hexahydro-isoindol-2-yl)-8-chloro-1-cycl propyl-6-fluoro-1,4-dihydro-4-oxo-3-quinolinecarboxylic acid, reference compound]		
8 µg/mL (≈ 19.5 µM)	0.125 µg/mL (≈ 0.305 µM)	16 µg/mL (≈ 39.1 µM)	0.062 µg/mL (≈ 0.151 µM)	8 µg/mL (≈ 19.5 µM)						NC12C=CC(CC1)C1CN(c3cc4c(cc3F)c(=O)c(C(=O)O)cn4C3CC3)CC12 (centres unmarked) [Example 1, 7-(1-amino-4-aza-tricyclo[5.2.2.0^2,6]undec-8-en-4-yl)-1-cyclopropyl-6-fluoro-1,4-dihydro-4-oxo-3-quinolinecarboxylic acid]	24 µg/mL (≈ 58.6 µM)	
